Holding throughout (type): biochemical
The target of assay [1] is PDE10A (Homo sapiens, UniProt Q9Y233). Briefly: Phosphodiesterase assay (TR-FRET, LANCE cAMP kit). To be noted: PDE10A (BPS Bioscience) 200 pg/well, biotin-cAMP substrate, 60 min at room temperature. The protocol:
(§1) The PDE assay is based on the homogenous time-resolved fluorescence resonance energy transfer (TR-FRET) technology (LANCE® from Perkin Elmer). […] When there is PDE activity, resulting in the degradation of the cyclic nucleotide, the complex is not formed and a decrease in signal is observed.
(§2) The phosphodiesterase assay was developed using the LANCE® cAMP kit (PerkinElmer). The assay buffer contained HBSS with 5 mM HEPES, 0.1% BSA, and 1.5 mM MgCl2, pH 7.4. PDE10A (BPS Bioscience) was used at 200 pg/well (with a specific activity of 3200 pmole/min/μg with assay conditions: 10 mM Tris-HCl, pH7.4, 10 mM MgCl2, 1 mM MnCl2, 200 μM cAMP, 2.5 kU 5′ nucleotidase, 37° C., 20 min). […] Chemical compounds were dissolved in DMSO (final concentration 2% (v/v)).
(§3) In a 384-well plate, 2 μL inhibitor and 3 μL PDE were added to the well, followed by the addition of 5 μl substrate biotinylated cAMP (1:5). After 60 min incubation at room temperature, 10 μL of assay detection mixture was added to the assay plate. After 1 h at room temperature, the signal was measured on EnVision™ (Perkin Elmer).
For orientation: TR-FRET usually uses a lanthanide donor and a delayed reading to cut background.

In assay [2] the target is PDE10A. As to the kind of experiment: Phosphodiesterase assay (TR-FRET, LANCE cAMP kit). The following applies: PDE10A (BPS Bioscience) 200 pg/well, biotin-cAMP substrate, 60 min at room temperature. The protocol: as §1, §2, §3
Assay [3] has as its target PDE4D3 (Homo sapiens (Human), UniProt Q08499). Briefly: PDE4D3 inhibition (selectivity testing). An excerpt:
The compounds have also been tested for their activities on PDEs1-9 and PDE11.

The values below come from patent US8772316B2, “Substituted 6,7-dialkoxy-3-isoquinolinol derivatives as inhibitors of phosphodiesterase 10 (PDE10A)” (Allergan, Inc., priority 2011, dated 2014).

Counter-ions that a name gives are not always drawn.

What is called IC50 is the point on the concentration scale where inhibition reaches its midpoint. Higher therefore signals weaker potency in that assay.

Sequence of PDE10A (Homo sapiens, UniProt Q9Y233) (Q9Y233 whole entry, looked up): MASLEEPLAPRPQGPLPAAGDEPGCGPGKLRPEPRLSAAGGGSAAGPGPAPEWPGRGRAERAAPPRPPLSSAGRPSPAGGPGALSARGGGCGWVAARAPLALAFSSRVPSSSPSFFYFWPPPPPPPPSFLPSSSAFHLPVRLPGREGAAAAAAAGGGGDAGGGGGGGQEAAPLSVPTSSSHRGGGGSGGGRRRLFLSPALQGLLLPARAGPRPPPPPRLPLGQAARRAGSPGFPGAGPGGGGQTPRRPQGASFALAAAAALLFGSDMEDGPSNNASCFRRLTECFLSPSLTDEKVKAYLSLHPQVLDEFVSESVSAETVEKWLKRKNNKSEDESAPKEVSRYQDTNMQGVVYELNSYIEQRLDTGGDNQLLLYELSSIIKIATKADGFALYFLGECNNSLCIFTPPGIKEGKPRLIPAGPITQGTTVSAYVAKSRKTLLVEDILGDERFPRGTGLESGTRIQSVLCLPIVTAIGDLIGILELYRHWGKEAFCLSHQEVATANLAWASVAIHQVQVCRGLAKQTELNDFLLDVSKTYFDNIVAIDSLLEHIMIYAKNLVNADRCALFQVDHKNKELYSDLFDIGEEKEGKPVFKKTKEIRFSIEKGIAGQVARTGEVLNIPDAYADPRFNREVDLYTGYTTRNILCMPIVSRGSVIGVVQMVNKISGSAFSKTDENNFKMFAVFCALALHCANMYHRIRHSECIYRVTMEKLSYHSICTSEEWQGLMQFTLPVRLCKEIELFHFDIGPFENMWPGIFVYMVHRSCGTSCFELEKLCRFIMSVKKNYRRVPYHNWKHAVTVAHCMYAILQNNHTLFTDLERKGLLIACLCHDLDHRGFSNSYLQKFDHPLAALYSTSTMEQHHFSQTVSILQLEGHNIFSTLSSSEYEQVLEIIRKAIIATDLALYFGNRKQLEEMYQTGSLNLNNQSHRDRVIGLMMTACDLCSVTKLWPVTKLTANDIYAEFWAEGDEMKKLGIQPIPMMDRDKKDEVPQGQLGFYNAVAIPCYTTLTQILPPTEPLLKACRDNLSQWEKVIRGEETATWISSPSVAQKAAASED
Sequence of PDE4D3 (Q08499 other isoform, or with tags, fused parts or gaps): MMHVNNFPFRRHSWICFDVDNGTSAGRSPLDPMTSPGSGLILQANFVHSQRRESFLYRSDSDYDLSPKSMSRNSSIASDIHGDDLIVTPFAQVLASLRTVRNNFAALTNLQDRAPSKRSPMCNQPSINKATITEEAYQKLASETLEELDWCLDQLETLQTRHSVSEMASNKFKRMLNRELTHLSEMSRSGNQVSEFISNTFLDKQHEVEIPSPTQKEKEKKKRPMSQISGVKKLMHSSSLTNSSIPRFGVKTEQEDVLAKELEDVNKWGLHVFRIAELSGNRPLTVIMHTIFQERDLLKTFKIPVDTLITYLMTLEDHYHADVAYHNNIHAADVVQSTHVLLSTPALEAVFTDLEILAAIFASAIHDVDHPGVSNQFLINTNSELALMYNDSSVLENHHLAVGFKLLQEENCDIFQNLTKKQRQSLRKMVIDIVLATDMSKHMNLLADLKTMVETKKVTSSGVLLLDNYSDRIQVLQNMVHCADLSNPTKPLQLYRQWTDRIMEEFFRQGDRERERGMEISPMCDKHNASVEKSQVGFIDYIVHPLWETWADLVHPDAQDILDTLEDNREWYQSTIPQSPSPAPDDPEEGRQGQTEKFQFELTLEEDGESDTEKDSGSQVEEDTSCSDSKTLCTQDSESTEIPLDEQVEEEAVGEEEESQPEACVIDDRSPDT

For the compound `CCCNc1nc2ccc(OC)cc2cc1Cc1c(O)nc(C)c2cc(OC)c(OC)cc12` [Compound 38, 6,7-dimethoxy-4-((6-methoxy-2-(propylamino)quinolin-3-yl)methyl)-1-methylisoquinolin-3-ol dihydrochloride], in assay [1], the midpoint of inhibition, the IC50, lay at 2.7 nM.
In turn, `COc1cc2c(C)nc(O)c(Cc3ccnc4ccccc34)c2cc1OC` [Compound 25, 6,7-Dimethoxy-1-methyl-4-(quinolin-4-ylmethyl)isoquinolin-3-ol dihydrochloride] had an IC50 in assay [1] of 265 nM.
For the compound `COc1ccc(-c2cccc(Cc3c(O)nc(C)c4cc(OC)c(OC)cc34)n2)cc1` [Compound 13, 6,7-dimethoxy-4-((6-(4-methoxyphenyl)pyridin-2-yl)methyl)-1-methylisoquinolin-3-ol dihydrochloride], the midpoint of inhibition in assay [1], the IC50, lay at 50 nM.
Same read-out and setting: in the case of `CCCc1nc(O)c(Cc2cc3cc4c(cc3nc2NCC)OCO4)c2cc(OC)c(OC)cc12` [Compound 64, 4-((6-(ethylamino)-[1,3]dioxolo[4,5-g]quinolin-7-yl)methyl)-6,7-dimethoxy-1-propylisoquinolin-3-ol dihydrochloride] it was 1.2 nM.
The compound `CCCc1nc(O)c(Cc2cc3cc(OCC)ccc3nc2NCC)c2cc(OC)c(OC)cc12` [Compound 49, 4-((6-ethoxy-2-(ethylamino)quinolin-3-yl)methyl)-6,7-dimethoxy-1-propylisoquinolin-3-ol dihydrochloride] gave an IC50 in assay [1] of 4.6 nM.
On the same count and under the same terms, then `CCc1nc(O)c(Cc2ccc3ccccc3c2)c2cc(OC)c(OC)cc12` [Compound 19, 1-ethyl-6,7-dimethoxy-4-(naphthalen-2-ylmethyl)isoquinolin-3-ol hydrochloride], with 11 nM; and `COc1cc2c(C)nc(O)c(Cc3ccc4cnccc4c3)c2cc1OC` [Compound 21, 4-(Isoquinolin-6-ylmethyl)-6,7-dimethoxy-1-methylisoquinolin-3-ol dihydrochloride], with 333 nM.
On to `CCc1nc(O)c(Cc2ccc3oc4ccccc4c3c2)c2cc(OC)c(OC)cc12` [Compound 6, 4-(Dibenzo[b,d]furan-2-ylmethyl)-1-ethyl-6,7-dimethoxyisoquinolin-3-ol hydrochloride], for which the concentration for half-maximal inhibition (IC50) in assay [2] was found to be 0.12 nM; in assay [3], 0.9 nM.
Regarding `CCCc1nc(O)c(Cc2ccc3nc(C)ccc3c2)c2cc(OC)c(OC)cc12` [Compound 80, 6,7-dimethoxy-4-((2-methylquinolin-6-yl)methyl)-1-propylisoquinolin-3-ol dihydrochloride], the midpoint of inhibition in assay [1], the IC50, lay at 3.2 nM.
Same read-out and setting: in the case of `CCc1nc(O)c(Cc2cc3cc(OC)ccc3nc2NCC(F)(F)F)c2cc(OC)c(OC)cc12` [Compound 45, 1-ethyl-6,7-dimethoxy-4-((6-methoxy-2-(2,2,2-trifluoroethylamino)quinolin-3-yl)methyl)isoquinolin-3-ol dihydrochloride] it was 30 nM.
The same measure, in the same setting: then `COc1cc2c(C)nc(O)c(Cc3cccc4cnccc34)c2cc1OC` [Compound 22, 4-(Isoquinolin-5-ylmethyl)-6,7-dimethoxy-1-methylisoquinolin-3-ol dihydrochloride], with 333 nM.
Same read-out and setting: then `CCNc1nc2ccc(OC)cc2cc1Cc1c(O)nc(CNS(C)(=O)=O)c2cc(OC)c(OC)cc12` [Compound 58, N-((4-((2-(ethylamino)-6-methoxyquinolin-3-yl)methyl)-3-hydroxy-6,7-dimethoxyisoquinolin-1-yl)methyl)methanesulfonamide dihydrochloride], with 221 nM; and `CCCc1nc(O)c(Cc2cc3cc(OCC)ccc3nc2NCCNC(C)=O)c2cc(OC)c(OC)cc12` [Compound 88, N-(2-((6-ethoxy-3-((3-hydroxy-6,7-dimethoxy-1-propylisoquinolin-4-yl)methyl)quinolin-2-yl)amino)ethyl)acetamide dihydrochloride], with 1.8 nM.
Turning to `CCc1nc(O)c(Cc2cc3cc(OC)ccc3nc2NC(C)C)c2cc(OC)c(OC)cc12` [Compound 43, 1-Ethyl-4-((2-(isopropylamino)-6-methoxyquinolin-3-yl)methyl)-6,7-dimethoxyisoquinolin-3-ol dihydrochloride], in assay [1], the IC50 came to 3.5 nM.
In the case of `COc1ccc2nc(NCC(F)(F)F)c(Cc3c(O)nc(C(C)C)c4cc(OC)c(OC)cc34)cc2c1` [Compound 51, 1-isopropyl-6,7-dimethoxy-4-((6-methoxy-2-(2,2,2-trifluoroethylamino)quinolin-3-yl)methyl)isoquinolin-3-ol dihydrochloride], the results for the IC50 in assay [1] and in assay [3] were 55 nM and 280 nM, respectively.
The matching figures for `CCc1nc(O)c(Cc2cnc3cc(OC)ccc3c2)c2cc(OC)c(OC)cc12` [Compound 31, 1-ethyl-6,7-dimethoxy-4-((7-methoxyquinolin-3-yl)methyl)isoquinolin-3-ol dihydrochloride]: 13 nM and 82 nM.
Turning to `CCc1nc(O)c(Cc2cc3cc(OC)ccc3nc2NCCOC)c2cc(OC)c(OC)cc12` [Compound 77, 1-Ethyl-6,7-dimethoxy-4-((6-methoxy-2-(2-methoxyethylamino)quinolin-3-yl)methyl)isoquinolin-3-ol dihydrochloride], the IC50 in assay [1] was determined as 2 nM.
Same read-out and setting: then `COc1cc2c(C)nc(O)c(Cc3ccncc3)c2cc1OC` [Compound 11, 6,7-dimethoxy-1-methyl-4-(pyridin-4-ylmethyl)isoquinolin-3-ol hydrochloride], with 223 nM; and `CCNc1nc2ccc(OC)cc2cc1Cc1c(O)nc(C(C)C)c2cc(OC)c(OC)cc12` [Compound 47, 4-((2-(ethylamino)-6-methoxyquinolin-3-yl)methyl)-1-isopropyl-6,7-dimethoxyisoquinolin-3-ol dihydrochloride], with 11 nM.
